Measurements as given in ChEMBL document CHEMBL5137031, “The structure-based design of peptidomimetic inhibitors against SARS-CoV-2 3C like protease as Potent anti-viral drug candidate” (Eur J Med Chem, 2022).
pEC50, pIC50: −log10 of the molar value.

Experiments:
SARS-CoV-2 [1] = assay: Antiviral activity against SARS-CoV-2 WIV04 infected in African green monkey Vero cells assessed as inhibition of viral proliferation measured at 24 hrs post infection by qRT-PCR analysis; format: functional, organism-based; conditions: Severe acute respiratory syndrome coronavirus 2, WIV04, Vero
[2] = biological target: Replicase polyprotein 1ab (Severe acute respiratory syndrome coronavirus 2, UniProt P0DTD1); assay: Inhibition of SARS-CoV-2 3CL protease expressed in Escherichia coli BL21 (DE3) cells assessed as change in relative fluorescence unit using MCA-TSAVLQSGFRK(DNP)M as substrate preincubated for 30 mins followed by substrate addition and measured after 2 hrs by microplate reader based FRET assay
A549 = assay: Cytotoxicity against human A549 cells assessed as inhibition of cell growth measured after 24 hrs by MTT assay; format: toxicity, cell-based; conditions: a549, 24 h
SARS-CoV-2 [3] = assay: Antiviral activity against SARS-CoV-2 WIV04 infected in African green monkey Vero cells assessed as log reduction in viral RNA at 10 uM measured at 24 hrs post infection by qRT-PCR analysis; format: functional, Severe acute respiratory syndrome coronavirus 2
Vero = assay: Cytotoxicity against African green monkey Vero cells assessed as reduction in cell viability incubated for 48 hrs by CCK8 assay; format: toxicity, cell-based; conditions: chlorocebus sabaeus

SMILES	pEC50 (SARS-CoV-2 [1])	pIC50 [2]	Activity (A549)	log(activity) (SARS-CoV-2 [3])	Activity (Vero)
CC(C)C[C@H](NC(=O)[C@@H](NC(=O)/C=C/c1ccc(N(C)C)cc1)C(C)C)C(=O)N[C@H](C=O)C[C@@H]1CCCNC1=O	< 5.52	6.23	Non-Toxic		
CC(C)C[C@H](NC(=O)[C@@H](NC(=O)/C=C/c1ccc(C(C)C)cc1)C(C)C)C(=O)N[C@H](C=O)C[C@@H]1CCCNC1=O	< 5.52	6.64	Non-Toxic		
CC[C@H](C)[C@H](NC(=O)/C=C/c1ccccc1)C(=O)N[C@@H](CC(C)C)C(=O)N[C@H](C=O)C[C@@H]1CCCNC1=O	< 5.52	6.45	Non-Toxic		
CC(C)C[C@H](NC(=O)[C@@H](NC(=O)c1ccccc1)C(C)C)C(=O)N[C@H](C=O)C[C@@H]1CCCNC1=O	< 5.52	6.59	Non-Toxic		
CC(C)C[C@H](NC(=O)[C@@H](NC(=O)c1ccc(-c2ccccc2)cc1)C(C)C)C(=O)N[C@H](C=O)C[C@@H]1CCCNC1=O	< 5.52	6.39	Non-Toxic		
CC(C)C[C@H](NC(=O)[C@@H](NC(=O)c1ccc(Cl)cc1)C(C)C)C(=O)N[C@H](C=O)C[C@@H]1CCCNC1=O	< 5.52	6.83	Non-Toxic		
CC(C)C[C@H](NC(=O)[C@@H](NC(=O)c1ccc2cc[nH]c2c1)C(C)C)C(=O)N[C@H](C=O)C[C@@H]1CCCNC1=O	< 5.52	6.66	Non-Toxic		
CC(C)C[C@H](NC(=O)/C=C/c1ccccc1)C(=O)N[C@H](C=O)C[C@@H]1CCNC1=O	5.97	6.43	Non-Toxic	2	Non-Toxic
CC(C)C[C@H](NC(=O)[C@@H](NC(=O)c1ccccn1)C(C)C)C(=O)N[C@H](C=O)C[C@@H]1CCCNC1=O	< 5.52	6.25	Non-Toxic		
CC(C)C[C@H](NC(=O)[C@@H](NC(=O)/C=C/c1ccccc1F)C(C)C)C(=O)N[C@H](C=O)C[C@@H]1CCCNC1=O	< 5.52	6.76	Non-Toxic		
CC(C)C[C@H](NC(=O)[C@@H](NC(=O)/C=C/c1cccc(F)c1)C(C)C)C(=O)N[C@H](C=O)C[C@@H]1CCCNC1=O	< 5.52	6.59	Non-Toxic		
O=C[C@H](C[C@@H]1CCCNC1=O)NC(=O)[C@H](CC1CC1)NC(=O)/C=C/c1ccccc1	5.95	6.53	Non-Toxic		Non-Toxic
CC(C)C[C@H](NC(=O)[C@@H](NC(=O)c1ccoc1)C(C)C)C(=O)N[C@H](C=O)C[C@@H]1CCCNC1=O	< 5.52	6.76	Non-Toxic		
CCCC[C@H](NC(=O)/C=C/c1ccccc1)C(=O)N[C@H](C=O)C[C@@H]1CCNC1=O	5.95	6.43	Non-Toxic	2	Non-Toxic
CC(C)C[C@H](NC(=O)[C@@H](NC(=O)/C=C/c1ccc(F)cc1)C(C)C)C(=O)N[C@H](C=O)C[C@@H]1CCCNC1=O	< 5.52	6.51	Non-Toxic		
C[C@H](NC(=O)/C=C/c1ccccc1)C(=O)N[C@H](C=O)C[C@@H]1CCCNC1=O	< 5.52	4.91	Non-Toxic		
CC(C)C[C@H](NC(=O)[C@@H](NC(=O)c1ccc2ccccc2c1)C(C)C)C(=O)N[C@H](C=O)C[C@@H]1CCCNC1=O	5.87	6.57	Non-Toxic	2	Non-Toxic
CC(C)C[C@H](NC(=O)[C@@H](NC(=O)c1ccc([N+](=O)[O-])cc1)C(C)C)C(=O)N[C@H](C=O)C[C@@H]1CCCNC1=O	< 5.52	6.68	Non-Toxic		
CC(C)C[C@H](NC(=O)[C@@H](NC(=O)c1ccncc1)C(C)C)C(=O)N[C@H](C=O)C[C@@H]1CCCNC1=O	< 5.52	6.82	Non-Toxic		
CCCC[C@H](NC(=O)/C=C/c1ccccc1)C(=O)N[C@H](C=O)C[C@@H]1CCCNC1=O	< 5.52	6.56	Non-Toxic		
C=CC[C@H](NC(=O)/C=C/c1ccccc1)C(=O)N[C@H](C=O)C[C@@H]1CCCNC1=O	< 5.52	5.87	Non-Toxic		
COc1ccc(/C=C/C(=O)N[C@H](C(=O)N[C@@H](CC(C)C)C(=O)N[C@H](C=O)C[C@@H]2CCCNC2=O)C(C)C)cc1	< 5.52	6.60	Non-Toxic		
